# In patent publication US9670147B2, “Antioxidant inflammation modulators: oleanolic acid derivatives with amino and other modifications at C-17” (REATA PHARMACEUTICALS, INC., priority 2008, dated 2017):
# Legend:
# [1] = tested on: IFNγ-induced NO production in RAW264.7 macrophages; assay: Suppression of IFNγ-induced NO production (Griess reagent); format: cell-based, mouse; conditions: Mus musculus, 2 h pre-treatment, then 20 ng/ml IFNγ for 24 hours
# Protocol: (§1) FIGS. 1-34. Inhibition of NO Production. RAW264.7 macrophages were pre-treated with DMSO or drugs at various concentrations (nM) for 2 hours, then treated with 20 ng/ml IFNγ for 24 hours. NO concentration in media was determined using the Griess reagent system; cell viability was determined using WST-1 reagent. FIGS. 49-52. Inhibition of NO Production. RAW264.7 macrophages were pre-treated with DMSO or drugs at various concentrations (nM) for 2 hours, then treated with 20 ng/ml IFNγ for 24 hours. NO concentration in media was determined using the Griess reagent system; cell viability was determined using WST-1 reagent. RAW264.7 macrophages were pre-treated with DMSO or drugs for 2 hours, then treated with recombinant mouse IFNγ (Sigma) for 24 hours. NO concentration in media was determined using the Griess reagent system (Promega). Cell viability was determined using WST-1 reagent (Roche).
# iNOS = iNOS Western blot in RAW264.7 mouse macrophages; format: cell-based; conditions: compounds at 300 nM for 2 hours, 24 hour induction by IFNγ, read-out: iNOS suppr. WB
# Protocol: FIGS. 38-40. iNOS Western Blot in RAW264.7 mouse macrophages. Cells were pretreated by compounds at 300 nM for 2 hours, followed by 24 hour induction by IFNγ (20 ng/ml). […]
# HO-1 = assay: Nrf2 target gene induction in MDA-MB-435 cells, qPCR: HO-1; format: cell-based, human; conditions: 16 hours
# Protocol: FIG. 43. Induction of HO-1. FIGS. 43A and 43B: MDA-MB-435 human melanoma cells were treated with vehicle (DMSO) or the indicated compounds and concentrations for 16 hours. HO-1 mRNA levels were quantified using qPCR and were normalized relative to a DMSO-treated sample run in parallel. Values are averages of duplicate wells. FIG. 43C: MDA-MB-435 cells were treated with vehicle (DMSO) or the indicated compounds at 400 nM for 16 hours. HO-1, TrxR1 and actin protein levels were assayed by immunoblotting. Actin served as a loading control.
# (§2) FIGS. 44, 46 and 47—Induction of HO-1, TrxR1 and γ-GCS. FIGS. 44A-C, 46A-C, 47A-C: MDA-MB-435 human melanoma cells were treated with vehicle (DMSO) or the indicated compounds (400 nM) for 16 hours. HO-1, thioredoxin reductase-1 (TrxR1), and γ-glutamylcysteine synthetase (γ-GCS) mRNA levels were quantified using qPCR and were normalized relative to a DMSO-treated sample run in parallel. Values are averages of duplicate wells. FIGS. 44D, 46D, 47D: MDA-MB-435 cells were treated with vehicle (DMSO) or the indicated compounds at 400 nM for 16 hours. HO-1, TrxR1 and actin protein levels were assayed by immunoblotting.
# (§3) FIG. 45. Induction of HO-1, TrxR1 and γ-GCS. FIGS. 45 A-C: MDA-MB-435 cells were treated with vehicle (DMSO) or the indicated compounds at 160 nM for 16 hours. HO-1, TrxR1, and γ-GCS mRNA levels were quantified by qPCR and were normalized relative to a DMSO-treated sample run in parallel. Values are averages of duplicate wells. FIGS. 44D, 46D, 47D: MDA-MB-435 cells were treated with vehicle (DMSO) or the indicated compounds at 160 nM for 16 hours. HO-1, TrxR1 and actin protein levels were assayed by immunoblotting.
# (§4) MDA-MB-435 human melanoma cells were treated with vehicle (DMSO) or the indicated compounds and concentrations for 16 hours. HO-1, thioredoxin reductase-1 (TrxR1), γ-glutamylcysteine synthetase (γ-GCS), and ferritin heavy chain mRNA levels were quantified using qPCR and were normalized relative to a DMSO-treated sample run in parallel. Values are averages of duplicate wells. Primer sequences are as follows.
# TrxR1 = assay: Nrf2 target gene induction in MDA-MB-435 cells, qPCR: TrxR1; format: cell-based, human; conditions: 16 hours
# Protocol: as §2, §3, §4
# RAW264.7 macrophages = assay: Cell viability, WST-1 reagent; format: cell-based, mouse; conditions: Mus musculus, 2 h pre-treatment, then 20 ng/ml IFNγ for 24 hours
# Protocol: as §1
# γ-GCS = assay: Nrf2 target gene induction in MDA-MB-435 cells, qPCR: γ-GCS; format: cell-based, human; conditions: 16 hours
# Protocol: as §2, §3, §4
Compound,IC50 [1],inhibition at 0.3 µM (iNOS),HO-1 induction (HO-1; 400 nM),TrxR1 induction (TrxR1; 400 nM),IC50 (RAW264.7 macrophages),γ-GCS induction (γ-GCS; 400 nM),HO-1 induction (HO-1; 160 nM),TrxR1 induction (TrxR1; 160 nM),γ-GCS induction (γ-GCS; 160 nM)
"CNC(=O)N[C@]12CCC(C)(C)C[C@H]1[C@H]1C(=O)C=C3[C@@]4(C)C=C(C#N)C(=O)C(C)(C)[C@@H]4CC[C@@]3(C)[C@]1(C)CC2 [Compound 63172, 1-((4aS,6aR,6bS,8aR,12aS,14aR,14bS)-11-cyano-2,2,6a,6b,9,9,12a-heptamethyl-10,14-dioxo-1,2,3,4,4a,5,6,6a,6b,7,8,8a,9,10,12a,14,14a,14b-octadecahydropicen-4a-yl)-3-methylurea]",30 nM,,,,> 200 nM,,4% of induction observed for RTA 402,43% of induction observed for RTA 402,27% of induction observed for RTA 402
"CC1(C)CC[C@]2(NC(=O)c3ccccc3)CC[C@]3(C)[C@H](C(=O)C=C4[C@@]5(C)C=C(C#N)C(=O)C(C)(C)[C@@H]5CC[C@]43C)[C@@H]2C1 [Compound 63182, N-((4aS,6aR,6bS,8aR,12aS,14aR,14bS)-11-cyano-2,2,6a,6b,9,9,12a-heptamethyl-10,14-dioxo-1,2,3,4,4a,5,6,6a,6b,7,8,8a,9,10,12a,14,14a,14b-octadecahydropicen-4a-yl)benzamide]",7 to 13 nM,,,,125 nM,,,,
"CC1(C)CC[C@]2(NC(=O)Nc3ccc(O)cc3)CC[C@]3(C)[C@H](C(=O)C=C4[C@@]5(C)C=C(C#N)C(=O)C(C)(C)[C@@H]5CC[C@]43C)[C@@H]2C1 [Compound 63148, 1-((4aS,6aR,6bS,8aR,12aS,14aR,14bS)-11-cyano-2,2,6a,6b,9,9,12a-heptamethyl-10,14-dioxo-1,2,3,4,4a,5,6,6a,6b,7,8,8a,9,10,12a,14,14a,14b-octadecahydropicen-4a-yl)-3-(4-hydroxyphenyl)urea]",~25 nM,,,,> 200 nM,,,,
"CC(C)OC(=O)N[C@]12CCC(C)(C)C[C@H]1[C@H]1C(=O)C=C3[C@@]4(C)C=C(C#N)C(=O)C(C)(C)[C@@H]4CC[C@@]3(C)[C@]1(C)CC2 [Compound 63184, isopropyl-(4aS,6aR,6bS,8aR,12aS,14aR,14bS)-11-cyano-2,2,6a,6b,9,9,12a-heptamethyl-10,14-dioxo-1,2,3,4,4a,5,6,6a,6b,7,8,8a,9,10,12a,14,14a,14b-octadecahydropicen-4a-ylcarbamate]",14.5 nM,,,,75 nM,,,,
"CC1(C)CC[C@]2(NC(=O)OC3CCOC3)CC[C@]3(C)[C@H](C(=O)C[C@@H]4[C@@]5(C)C=C(C#N)C(=O)C(C)(C)[C@@H]5CC[C@]43C)[C@@H]2C1 (stereo partly drawn) [Compound 63265, tetrahydrofuran-3-yl(4aS,6aR,6bR,8aR,12aR,12bR,14aR,14bS)-11-cyano-2,2,6a,6b,9,9,12a-heptamethyl-10,14-dioxo-1,2,3,4,4a,5,6,6a,6b,7,8,8a,9,10,12a,12b,13,14,14a,14b-icosahydropicen-4a-ylcarbamate]",~100 nM,,,,> 200 nM,,,,
"CC1(C)CC[C@]2(NC(N)=O)CC[C@]3(C)[C@H](C(=O)C=C4[C@@]5(C)C=C(C#N)C(=O)C(C)(C)[C@@H]5CC[C@]43C)[C@@H]2C1 [Compound 63176, 1-((4aS,6aR,6bS,8aR,12aS,14aR,14bS)-11-cyano-2,2,6a,6b,9,9,12a-heptamethyl-10,14-dioxo-1,2,3,4,4a,5,6,6a,6b,7,8,8a,9,10,12a,14,14a,14b-octadecahydropicen-4a-yl)urea]",100 nM,,,,> 200 nM,,,,

# Further lines, with some results ahead:
IC50 [1],Compound,inhibition at 0.3 µM (iNOS),HO-1 induction (HO-1; 400 nM),TrxR1 induction (TrxR1; 400 nM),IC50 (RAW264.7 macrophages),γ-GCS induction (γ-GCS; 400 nM),HO-1 induction (HO-1; 160 nM),TrxR1 induction (TrxR1; 160 nM),γ-GCS induction (γ-GCS; 160 nM)
~3 nM,"C#CC(=O)N[C@]12CCC(C)(C)C[C@H]1[C@H]1C(=O)C=C3[C@@]4(C)C=C(C#N)C(=O)C(C)(C)[C@@H]4CC[C@@]3(C)[C@]1(C)CC2 [Compound 63246, N-((4aS,6aR,6bS,8aR,12aS,14aR,14bS)-11-cyano-2,2,6a,6b,9,9,12a-heptamethyl-10,14-dioxo-1,2,3,4,4a,5,6,6a,6b,7,8,8a,9,10,12a,14,14a,14b-octadecahydropicen-4a-yl)propiolamide]",> 90%,25% of induction observed for RTA 402,66% of induction observed for RTA 402,> 200 nM,77% of induction observed for RTA 402,,,
~2 nM,"CC1(C)CC[C@]2(NS(=O)(=O)CC(F)(F)F)CC[C@]3(C)[C@H](C(=O)C=C4[C@@]5(C)C=C(C#N)C(=O)C(C)(C)[C@@H]5CC[C@]43C)[C@@H]2C1 [Compound 63247, N-((4aS,6aR,6bS,8aR,12aS,14aR,14bS)-11-cyano-2,2,6a,6b,9,9,12a-heptamethyl-10,14-dioxo-1,2,3,4,4a,5,6,6a,6b,7,8,8a,9,10,12a,14,14a,14b-octadecahydropicen-4a-yl)-2,2,2-trifluoroethanesulfonamide]",> 90%,19% of induction observed for RTA 402,76% of induction observed for RTA 402,150 nM,75% of induction observed for RTA 402,,,
2 to 5 nM,"CC1(C)CC[C@]2(NS(=O)(=O)c3cccs3)CC[C@]3(C)[C@H](C(=O)C=C4[C@@]5(C)C=C(C#N)C(=O)C(C)(C)[C@@H]5CC[C@]43C)[C@@H]2C1 [Compound 63187, N-((4aS,6aR,6bS,8aR,12aS,14aR,14bS)-11-cyano-2,2,6a,6b,9,9,12a-heptamethyl-10,14-dioxo-1,2,3,4,4a,5,6,6a,6b,7,8,8a,9,10,12a,14,14a,14b-octadecahydropicen-4a-yl)thiophene-2-sulfonamide]",> 90%,32% of induction observed for RTA 402,90% of induction observed for RTA 402,100 nM,90% of induction observed for RTA 402,,,
3.2 nM,"CCOC(=O)N[C@]12CCC(C)(C)C[C@H]1[C@H]1C(=O)C=C3[C@@]4(C)C=C(C#N)C(=O)C(C)(C)[C@@H]4CC[C@@]3(C)[C@]1(C)CC2 [Compound 63168, ethyl-(4aS,6aR,6bS,8aR,12aS,14aR,14bS)-11-cyano-2,2,6a,6b,9,9,12a-heptamethyl-10,14-dioxo-1,2,3,4,4a,5,6,6a,6b,7,8,8a,9,10,12a,14,14a,14b-octadecahydropicen-4a-ylcarbamate]",,,,150 nM,,,,
6.8 nM,"CC1(C)CC[C@]2(NC(=O)n3cccn3)CC[C@]3(C)[C@H](C(=O)C=C4[C@@]5(C)C=C(C#N)C(=O)C(C)(C)[C@@H]5CC[C@]43C)[C@@H]2C1 [Compound 63178, N-((4aS,6aR,6bS,8aR,12aS,14aR,14bS)-11-cyano-2,2,6a,6b,9,9,12a-heptamethyl-10,14-dioxo-1,2,3,4,4a,5,6,6a,6b,7,8,8a,9,10,12a,14,14a,14b-octadecahydropicen-4a-yl)-1H-pyrazole-1-carboxamide]",,,,80 nM,,,,
3 to 6 nM,"C=CCOC(=O)N[C@]12CCC(C)(C)C[C@H]1[C@H]1C(=O)C=C3[C@@]4(C)C=C(C#N)C(=O)C(C)(C)[C@@H]4CC[C@@]3(C)[C@]1(C)CC2 [Compound 63186, allyl-(4aS,6aR,6bS,8aR,12aS,14aR,14bS)-11-cyano-2,2,6a,6b,9,9,12a-heptamethyl-10,14-dioxo-1,2,3,4,4a,5,6,6a,6b,7,8,8a,9,10,12a,14,14a,14b-octadecahydropicen-4a-ylcarbamate]",,,,100 nM,,,,
